Assay results reported in the NIST ThermoML archive (doi:10.1016/j.tca.2008.11.005).

Conditions: Liquid

C[SiH]1O[SiH](C)O[SiH](C)O[SiH](C)O[SiH](C)O1 (stereo not given) [2,4,6,8,10-pentamethylcyclopentasiloxane]
Conditions	vapor or sublimation pressure [kPa]
330.8 K	1.325
348.03 K	3.325
357.45 K	5.325
364.75 K	7.325
370.73 K	9.325
375.49 K	11.32
378.23 K	13.32
381.78 K	15.32
385.02 K	17.32
387.96 K	19.32
390.75 K	21.32
393.18 K	23.32
395.46 K	25.32
397.89 K	27.32
399.92 K	29.32
401.9 K	31.32
403.77 K	33.33
405.7 K	35.33
407.22 K	37.33
408.94 K	39.33
410.46 K	41.33
411.98 K	43.33
413.4 K	45.33
414.87 K	47.33
416.19 K	49.33
417.55 K	51.33
423.53 K	61.33
429.06 K	71.33
433.77 K	81.33
437.93 K	91.33

CCO [ethanol]
Conditions	vapor or sublimation pressure [kPa]
303.95 K	11.32
315.75 K	21.32
323.5 K	31.32
329.35 K	41.33
334.05 K	51.33
338.05 K	61.33
341.65 K	71.33
344.75 K	81.33
347.55 K	91.33
350.15 K	101.33
